Assay results as given in patent US20160166638A1, “LACTOFERRIN-OSTEOPONTIN-IRON COMPLEX” (NESTEC S.A., priority 2013, published 2016).

Test: Colour change of iron fortified strawberry-banana yoghurt after flash pasteurization (CIELAB colorimetry)
Format: physicochemical
Details: colour difference vs yoghurt with no iron salts; Jogolino Strawberry/Banana yoghurt, approx. 0.8 mg iron per 100 g; flash pasteurized at 105° C. for 2 minutes
Method: Commercial yoghurt, Nestlé Jogolino™ Strawberry/Banana yoghurt containing 15% banana puree and 10% strawberry puree, was iron fortified by the addition of different iron containing materials to 5 kg yoghurt as reported in the table below. The amounts were chosen to provide approximately 0.8 mg iron per 100 g yoghurt. A 100 g serving of yoghurt with that level of iron would provide 15% of the recommended daily amount of iron for an infant [Official Journal of the European Union, Commission Directive 2006/125/EC].
For the lactoferrin-osteopontin-iron complex (Trial B), the powder from Example 1 was added to yoghurt at a level of 28 g per 5 kg yoghurt. The resulting yoghurt composition comprised 5.6 g powder per kg which is 4 g LF-OPN-Fe complex per kg.
The yoghurts were flash pasteurized at 105° C. for 2 minutes. Colour measurements were performed in 1×1 cm polystyrene cuvettes using an X-Rite ColorEye 7000A colorimeter. The colorimeter was set up with a D65 light source, 10 degree observer angle and with specular component included. The colour difference between the yoghurt with no iron salts and the iron fortified yoghurt was measured for each iron salt and expressed as ΔEab* using the CIELAB colour scale.

ΔEab* | Compound
4.74 | O.O=S(=O)([O-])[O-].[Fe+2] [FeSO4 × H2O]
3.11 | O.O=C([O-])CN(CCN(CC(=O)[O-])CC(=O)[O-])CC(=O)[O-].[Fe+3].[Na+] [NaFeEDTA × H2O]
